For orientation: Kd means the equilibrium constant for the complex coming apart. A word on the IC50: it is the midpoint of a concentration-inhibition curve. High values mean lower potency, low ones higher potency.

Read-outs that look alike come from different tables or passages of the source. Residues, ends and D or L forms follow the SMILES beside them. No end group written: not given here.

Data on five compounds can be found in patent US9670482B2, “Multispecific peptides” (BICYCLE THERAPEUTICS LIMITED, priority 2009, dated 2017).

Data set [1] deals with Human Serum Albumin (HSA) (Homo sapiens, UniProt P02768). As to the kind of experiment: Fluorescence anisotropy titration with HSA. It is filed as binding. The conditions noted are these: 200 nM fluorophore; Hill equation; Kd cannot be determined accurately. Background: Polarisation of emitted light reports the rotation of a fluorescent probe.
Sequence of Human Serum Albumin (HSA) (P02768 25-609): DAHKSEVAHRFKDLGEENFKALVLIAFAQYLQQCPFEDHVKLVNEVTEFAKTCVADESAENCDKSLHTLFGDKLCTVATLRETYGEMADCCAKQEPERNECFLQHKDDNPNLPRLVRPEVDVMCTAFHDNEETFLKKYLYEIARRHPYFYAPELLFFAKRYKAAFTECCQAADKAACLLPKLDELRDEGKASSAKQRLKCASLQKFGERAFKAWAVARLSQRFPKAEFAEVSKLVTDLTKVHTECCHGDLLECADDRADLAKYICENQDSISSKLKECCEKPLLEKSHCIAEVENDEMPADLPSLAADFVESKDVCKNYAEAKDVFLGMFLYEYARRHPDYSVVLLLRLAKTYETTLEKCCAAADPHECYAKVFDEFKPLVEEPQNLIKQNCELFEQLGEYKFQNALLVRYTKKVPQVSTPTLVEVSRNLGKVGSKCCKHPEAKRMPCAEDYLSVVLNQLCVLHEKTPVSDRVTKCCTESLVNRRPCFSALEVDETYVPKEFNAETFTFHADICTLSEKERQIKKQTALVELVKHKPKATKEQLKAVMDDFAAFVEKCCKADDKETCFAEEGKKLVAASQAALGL
Data set [2] has as its target bovine serum albumin (BSA) (Bos taurus, UniProt P02769). As to the kind of experiment: Fluorescence anisotropy titration with BSA. The source says: For determining the affinity constant (Kd) of a fluorophore to target protein, we chose fluorescence anisotropy titrations.
Excitation was specific for coumarin (328 nm), and emission at 393 nm.
To determine whether a neighbouring group (here, Gly) on Fmoc affects binding to BSA, a similar experiment was run with Fmoc-Gly-OH (Nova Biochem). The intrinsic fluorescing properties of Fmoc were used for the anisotropy experiments.
To determine whether a neighbouring hydrophobic bulky group has an enhancing or adverse effect on BSA binding, Fmoc-Phe-OH was tested as above.
The solid phase resin employed was PAL-PEG-PS from Applied Biosystems. […] All peptides were capped with an N-terminal Fmoc, and a C-terminal amide (NH2). After cleavage, peptides were lyophilised, and solubilised in 5 mL of DMF. 100 μl of this was loaded onto an analytical C18 column using a Waters HPLC, using methanol and water (both in the presence of 0.1% TFA) as solvents. […] The peptide concentration in the cuvette was 200 nM.
Excitation was at 299 nm (to minimise Trp absorption), and emission at 320 nm. Slit widths were at 5 and 12 nm, respectively.
Peptide concentrations were estimated by the absorbance at 299 nm, using the extinction coefficient of 4700/M/cm. Excitation was at 299 nm, and emission was set to 320 nm, at slit widths of 5 and 12 nm, respectively.

In another data set the test system is HCT116 cells. As to the kind of experiment: Live cell imaging of peptide uptake, HCT116. Type of data set: cell-based, Human. The conditions noted are these: fluorescein-labelled TBMB conjugates, 10 μM. The procedure: Two cell lines, HeLa and HCT116, were used for these experiments. HeLa is a Human cervix epitheloid carcinoma and HCT116 is a Human colon carcinoma. Both cell types are widely available; for instance, HeLa cells are available from the UK HPA under catalogue number 93021013. HCT116 cells are available from the UK HPA under catalogue number 91091005.
Cells were seeded in Lab-Tek chambered borosilicate coverglass (Nunc). After culturing for 48 hrs (cells reached 40-60% confluency), media was removed and a fresh media supplemented with 10 μM of peptides was added to the cells. Cells were cultivated for a further 3.5 hrs or 24 hrs. At the end of the incubation time cells were washed 3×DMEM and finally resuspended in DMEM complete media supplemented with 10 mM HEPES buffer. Live cell imaging was performed on a laser scanning microscope (LSM 710, Zeiss), differential interference contrast (DIC) and fluorescent images were taken.
The cells were cultured in Dulbecco's Modified Eagle's Medium (DMEM, GIBCO) and supplemented with 10% (v/v) of heat-inactivated fetal bovine serum, 2 mM L-glutamine, 10 U/ml penicillin, and 100 ug/ml streptomycin (DMEM complete media) at 37° C. in a 5% CO2 atmosphere.

Another data set concerns the target T1, MDM2 (res 2-125) (Homo sapiens, UniProt Q00987).
T1 construct: made in house
As to the kind of experiment: Fluorescence anisotropy titration with MDM2. It is filed as binding. The procedure: Titration experiments were run on a Horiba Jobin Yvon fluorimeter equipped with the Hamilton Microlab titrator controlled by laboratory software. The λex and λem used were 295 nm and 350 nm, respectively. The slit widths for excitation and emission were 5 nm and 15 nm and the integration time 10 s was used for each measurement. The intrinsic fluorescence of tryptophan in peptides 10, 48 was used to measure their binding affinity for MDM2 (res 2-125). The experiments were performed at 23 C.° in PBS, 5 mM DTT. Usually 250 ul of MDM2 (150 uM) was titrated into 1.2 ml of peptide (1 uM). Titration data were analyzed with a standard 1:1 binding model by using the quadratic solution to the equilibrium Kd=[A][B]/[AB]. […] The fitting equation contained an extra term to account for linear drift.
Mdm2 binds the complete PEP48 peptide with good affinity. We now determined whether Mdm2 binding is still functional within the Fmoc-Trp-linker-bicyclic derivative. 250 μL of 18.8 μM Mdm2 (expressed and purified as described in Teufel et al, PNAS 2007) was titrated into 1.2 ml of 500 nM peptide. A strong binding event occurred (Kd<1 μM), however, the data could not be fitted as the Kd was too far below the concentration of peptide employed in the experiment (FIG. 9). Lower concentrations of peptide could not be used due to technical limitations. Accurate determination of dissociation constants of this peptide to Mdm2 will require a better fluorophore than Fmoc (see above), or different methodologies such as isothermal titration calorimetry (ITC).

For a further data set, the target named is T2, Kallikrein (Homo sapiens, UniProt P03952).
T2 construct: purchased Sigma Aldrich
T2 sequence (P03952 20-638): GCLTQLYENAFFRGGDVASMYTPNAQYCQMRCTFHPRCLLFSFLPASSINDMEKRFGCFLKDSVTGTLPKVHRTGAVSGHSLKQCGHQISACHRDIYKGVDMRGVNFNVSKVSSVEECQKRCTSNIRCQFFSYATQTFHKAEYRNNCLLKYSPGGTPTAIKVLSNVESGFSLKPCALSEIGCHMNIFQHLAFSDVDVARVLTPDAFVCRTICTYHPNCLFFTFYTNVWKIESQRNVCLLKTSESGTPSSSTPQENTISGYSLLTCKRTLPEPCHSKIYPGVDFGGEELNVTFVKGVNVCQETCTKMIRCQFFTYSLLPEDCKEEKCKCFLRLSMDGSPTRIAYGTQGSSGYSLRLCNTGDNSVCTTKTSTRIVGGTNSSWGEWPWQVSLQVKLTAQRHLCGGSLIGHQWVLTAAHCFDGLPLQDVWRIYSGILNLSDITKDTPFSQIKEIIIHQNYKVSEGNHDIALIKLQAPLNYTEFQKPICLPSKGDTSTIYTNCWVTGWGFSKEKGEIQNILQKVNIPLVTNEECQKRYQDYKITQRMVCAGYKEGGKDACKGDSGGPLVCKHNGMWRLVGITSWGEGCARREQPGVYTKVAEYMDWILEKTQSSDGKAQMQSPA
Briefly: Kallikrein assays (Z-Phe-Arg-amc substrate). Type of data set: biochemical. The procedure:
Enzymes were purchased from Sigma Aldrich and substrates from Bachem A G. The assay buffer is composed of 10 mM Tris pH 7.4, 150 mM NaCl, 10 mM MgCl2, 1 mM CaCl2, 0.1% BSA, 0.01% Triton X100 and 5% DMSO. Enzymes are incubated with inhibitors for 30 minutes at RT prior to addition of substrate. All experiments were recorded at 30° C. for 90 minutes.
Assays were performed on a BMG Pherastar plate reader at wavelengths of exc/em 350/450 nm. Kallikrein was bought as a solution of 1080 μg/mL and diluted to a working concentration of 0.3 nM in assay buffer. Substrate Z-Phe-Arg-amc was solubilised at the stock concentration of 10 mM in DMSO and diluted to a working concentration of 300 μM with assay buffer. Inhibitors were solubilised in assay buffer to a stock concentration of 60 μM. 50 μL of each reagent is introduced in wells for a final volume of 150 μL per well. Final concentration of kallikrein in assay is 0.1 nM and substrate is 100 μM.
Final concentrations of inhibitors were: 0.5 nM, 1 nM, 2 nM, 5 nM, 8 nM, 10 nM, 20 nM, 50 nM, 80 nM, 100 nM, 200 nM, 500 nM, 800 nM, 1 μM, 2 μM, 5 μM, 8 μM, 10 μM and 20 μM. The initial rate of the reaction is obtained by plotting fluorescence=f (time) data and by fitting a linear trendline for each concentration of inhibitor. The inhibition curves are obtained by plotting initial rate=f ([I]) and IC50 values can be evaluated.

The next data set in a line: Solubility in water. It is filed as physicochemical.

T1 sequence (Q00987 2-125): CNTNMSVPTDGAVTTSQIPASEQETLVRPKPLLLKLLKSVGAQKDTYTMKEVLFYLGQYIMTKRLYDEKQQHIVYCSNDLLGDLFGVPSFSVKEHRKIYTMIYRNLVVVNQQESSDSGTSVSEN
Sequence of bovine serum albumin (BSA) (P02769 25-607): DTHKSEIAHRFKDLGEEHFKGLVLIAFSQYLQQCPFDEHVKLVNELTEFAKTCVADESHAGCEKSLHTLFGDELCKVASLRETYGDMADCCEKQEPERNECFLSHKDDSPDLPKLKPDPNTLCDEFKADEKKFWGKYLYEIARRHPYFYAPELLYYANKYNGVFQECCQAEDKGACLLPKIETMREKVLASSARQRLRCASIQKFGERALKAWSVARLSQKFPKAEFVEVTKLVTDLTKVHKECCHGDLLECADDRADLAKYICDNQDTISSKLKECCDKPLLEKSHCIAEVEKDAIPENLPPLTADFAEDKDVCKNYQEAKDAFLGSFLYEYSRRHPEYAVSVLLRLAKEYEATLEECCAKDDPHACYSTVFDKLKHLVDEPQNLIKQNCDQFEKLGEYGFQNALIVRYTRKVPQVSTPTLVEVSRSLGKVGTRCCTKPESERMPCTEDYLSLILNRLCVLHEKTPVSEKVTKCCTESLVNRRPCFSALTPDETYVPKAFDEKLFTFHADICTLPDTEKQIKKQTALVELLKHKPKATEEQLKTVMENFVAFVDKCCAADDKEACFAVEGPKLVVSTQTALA

Consider `O=C(NC(Cc1ccccc1)C(=O)O)OCC1c2ccccc2-c2ccccc21` (centres unmarked) [Fmoc-Phe-OH], for which the Kd in data set [1] was about 10 nM; in data set [2], about 100 nM.

For “Pep48-D3: SCVRFGWTCDNSWHGCKG with C-terminal DDD (control), N-terminal fluorescein or methoxy-coumarin (SCVRFGWTCDNSWHGCKGDDD; cysteine pairing not given here; also: N-terminal fluorescein or methoxy-coumarin)”, the “cell penetration (fluorescent staining within the cell)” value in the data set with HCT116 cells is reported as “not”.

For “Pep48-R3: SCVRFGWTCDNSWHGCKG with C-terminal RRR, N-terminal fluorescein or methoxy-coumarin (SCVRFGWTCDNSWHGCKGRRR; cysteine pairing not given here; also: N-terminal fluorescein or methoxy-coumarin)”, the “cell penetration (fluorescent staining within the cell)” value with HCT116 cells is recorded as “fluorescent staining within the cell”.

On to `CC(C)[C@@H]1NC(=O)[C@@H](NC(=O)[C@@H](N)CO)CSCc2cc3cc(c2)CSC[C@H](NC(=O)[C@H]([C@@H](C)O)NC(=O)[C@H](Cc2c[nH]c4ccccc24)NC(=O)CNC(=O)[C@H](Cc2ccccc2)NC(=O)[C@H](CCCNC(=N)N)NC1=O)C(=O)N[C@@H](CC(=O)O)C(=O)N[C@@H](CC(N)=O)C(=O)N[C@@H](CO)C(=O)N[C@@H](Cc1c[nH]c2ccccc12)C(=O)N[C@@H](Cc1c[nH]cn1)C(=O)NCC(=O)N[C@H](C(=O)N[C@@H](CCCCN)C(=O)NCC(=O)O)CSC3` [PEP48] (HELM PEPTIDE1{S.C.V.R.F.G.W.T.C.D.N.S.W.H.G.C.K.G}|CHEM1{[c1c(C[*:1])cc(C[*:3])cc1C[*:2]]}$PEPTIDE1,CHEM1,2:R3-1:R1|PEPTIDE1,CHEM1,9:R3-1:R2|PEPTIDE1,CHEM1,16:R3-1:R3$$$V2.0), for which the dissociation constant Kd on MDM2 (res 2-125) lay in the range of 500 to 800 nM.

`CC(C)[C@@H]1NC(=O)[C@@H](NC(=O)[C@H](C)NC(=O)CNC(=O)CNC(=O)CNC(=O)[C@H](Cc2c[nH]c3ccccc23)NC(=O)OCC2c3ccccc3-c3ccccc32)CSCc2cc3cc(c2)CSC[C@H](NC(=O)[C@H]([C@@H](C)O)NC(=O)[C@H](Cc2c[nH]c4ccccc24)NC(=O)CNC(=O)[C@H](Cc2ccccc2)NC(=O)[C@H](CCCNC(=N)N)NC1=O)C(=O)N[C@@H](CO)C(=O)N[C@@H](CC(=O)O)C(=O)N[C@@H](CCCNC(=N)N)C(=O)N[C@@H](Cc1ccccc1)C(=O)N[C@@H](CCCNC(=N)N)C(=O)N[C@@H](CC(N)=O)C(=O)N[C@H](C(=O)NCC(N)=O)CSC3` [FmocPEP48L1-PK15L1 bicyclic] (HELM PEPTIDE1{[O=C(OCC1c2ccccc2-c2ccccc21)[*:2]].W.G.G.G.A.C.V.R.F.G.W.T.C.S.D.R.F.R.N.C.G.[am]}|CHEM1{[c1c(C[*:1])cc(C[*:3])cc1C[*:2]]}$PEPTIDE1,CHEM1,7:R3-1:R1|PEPTIDE1,CHEM1,14:R3-1:R2|PEPTIDE1,CHEM1,21:R3-1:R3$$$V2.0): the Kd at MDM2 (res 2-125) was under 1000 nM; on MDM2 (res 2-125) (read-out: Kd for Mdm2, 18.8 μM Mdm2 titrated into 500 nM peptide, data could not be fitted (FIG. 9)), under 1000 nM; in data set [2] (Kd for BSA, fluorescence anisotropy in PBS) it was about 60 nM. The IC50 is 17000 nM against Kallikrein (IC50 for inhibition of kallikrein activity, 0.1 nM kallikrein, 100 μM substrate, 30° C.) and about 17000 nM at Kallikrein (IC50 for inhibition of kallikrein, preliminary experiment, restated in Example 3). The solubility in water entry in the data set “Solubility in water” was “not well soluble in water”.
